From PMC6017792, “Hydrazone Derivatives Enhance Antileishmanial Activity of Thiochroman-4-ones” (Molecules : A Journal of Synthetic Chemistry and Natural …, 2017)

Tests used:
[1] = tested on: intracellular amastigotes of L. panamensis; test: in vitro antileishmanial activity on intracellular amastigotes (EGFP strain in U-937 cells, flow cytometry); type: cell-based, Leishmania panamensis; details: for IS (Index of Selectivity = LC50/EC50): LC50 (U-937) / EC50 (L. panamensis amastigotes); for EC50: intracellular amastigotes of L. panamensis (MHOM/CO/87/UA140-EGFP) in U-937 cells, 72 h, mean ± SD; for antileishmanial activity (in words): 10-50 µM moderately active, > 50 µM low activity
Protocol: Antileishmanial activity of compounds was determined according to the ability to reduce the infection by L. panamensis parasites, a Leishmania species that is highly prevalent in the Central America and Colombia as causative agent of C.L. For this, the antileishmanial activity was tested on intracellular amastigotes of L. panamensis transfected with the green fluorescent protein gene (MHOM/CO/87/UA140-EGFP strain). […] Plates were incubated at 34 °C and 5% CO2 for 3 h and then cells were washed twice with PBS to eliminate not internalized parasites. […] Cells were washed two times employing PBS, as previously, and after the last wash, the supernatant was discarded and cells were suspended in 500 μL of PBS.
Cells were analyzed by flow cytometry employing a flow cytometer (Cytomics FC 500MPL, Beckman Coulter. Pasadena, CA, USA) reading at 488 nm (exciting) and 525 nm (emitting) over an argon laser and counting 10,000 events. Infected cells were determined according the events for green fluorescence (parasites). All determinations for each compound and standard drug were carried out by triplicate, in two experiments. Infected cells exposed to amphotericin B were used as control for antileishmanial activity (positive control) while infected cells incubated in absence of any compound or drug were used as control for infection (negative control). Nonspecific fluorescence was corrected by subtracting fluorescence of unstained cells. Determinations were done by triplicate in at least two independent experiments.
Antileishmanial activity was determined according reduction of percentage of fluorescent parasites determined according to the median fluorescence intensity (MFI), obtained for each experimental condition by cytometry. The parasite values for each concentration of compound were calculated by Equation (3), where the % of parasites in the control well, corresponds to 100% of parasites:% parasites = (MFI exposed parasites/MFI unexposed parasites) × 100(3)
Results of antileishmanial activities were expressed as the EC50 calculated by Probit method. The compound were classified according to EC50 values using a scale defined by us, based on the hit criteria proposed by Katsuno et al.[25].

[2] = in vitro; details: human
Protocol: (§1) Cells exposed to compounds or standard drug were incubated 72 h at 37 °C and 5% of CO2. Cytotoxic activity of each compound was determined according to the effect on the cell viability by the MTT microenzymatic method in which 3-(4,5-dimethylthiazol-2-yl)-2,5-diphenyltetrazolium bromide is reduced to a purple product named formazan by mitochondrial enzyme succinate dehydrogenase. Thus, 10 μL/well of MTT solution (5 mg/mL) were added to each well of exposed and unexposed cells, and plates were incubated at 37 °C, 5% CO2 during 3 h. The reaction was stopped by adding 100 μL/well of isopropanol with 50% and 10% of sodium dodecyl sulfate. The concentration of formazan was determined spectrophotometrically at 570 nm (Varioskan Flash Multimode Reader, Thermo Scientific, Waltham, MA, USA) and intensity of color (absorbance) was registered as O.D. Cells exposed to amphotericin B were used as control for toxicity (positive control) while cell incubated in absence of any compound or drug were used as control for viability (negative control). Non-specific absorbance was corrected by subtracting absorbance (O.D.) of the blank. Determinations were done by triplicate in at least two independent experiments.
(§2) Cytotoxicity was determined according to viability and mortality percentages obtained for each experimental condition (synthetized compounds, amphotericin B and culture medium). […] Initially, viability percentages were calculated by Equation (1), where the O.D. of control well, corresponds to 100% of viability:% viability = (O.D. exposed cells/O.D. unexposed cells) × 100(1)

[3] = tested on: human monocytes (U-937 ATCC CRL-1593.2); test: in vitro; details: for CC50: read-out: LC50, U-937 cells, 72 h, MTT, mean ± SD
Protocol: as §1, §2

SMILES | IS (Index of Selectivity = LC50/EC50) [1] | EC50 ([1]; Leishmania panamensis) [µM] | CC50 at 72 h [2] [µM] | antileishmanial activity (in words) ([1]; […]) | EC50 [1] [µM] | CC50 [3] [µM] | antileishmanial activity (in words) ([1]; scale b56: EC50 < 10 µM highly active) | cytotoxic activity (in words) ([3]; scale b53: LC50 < 100 µM high toxicity, 100-200 µM moderate, > 200 µM potential nontoxicity)
CC1C/C(=N\NC(=O)c2ccncc2)c2ccccc2S1 (stereo not shown) [Compound 14, (E)-N′-(2-Methylthiochroman-4-ylidene)isonicotinohydrazide] | >11.9 | 56.6 ± 0.7 | > 672 | – | – | – | – | –
CC1CC(=O)c2cc(F)ccc2S1 (stereo not shown) [Compound 4, 6-Fluoro-2-methylthiochroman-4-one] | 1.4 | 422 ± 9.2 | 579 ± 59.1 | – | – | – | – | –
O=C(N/N=C1\CC(c2ccccc2)Sc2ccccc21)c1ccncc1 (stereo not shown) [Compound 22, (E)-N′-(2-Phenylthiochroman-4-ylidene)isonicotinohydrazide] | >33.9 | 16.4 ± 3.6 | > 556 | – | – | – | – | –
O=C(N/N=C1\CCSc2ccc(F)cc21)c1ccncc1 [Compound 11, (E)-N′-(6-Fluorothiochroman-4-ylidene)isonicotinohydrazide] | >16.6 | 39.9 ± 5.3 | > 664 | – | – | – | – | –
CC1C/C(=N\NC(=O)c2ccccc2)c2ccccc2S1 (stereo not shown) [Compound 13, (E)-N′-(2-Methylthiochroman-4-ylidene)benzohydrazide] | 3.9 | 38.1 ± 16.2 | 150 ± 24.3 | – | – | – | – | –
CC1CC(=O)c2ccccc2S1 (stereo not shown) [Compound 3, 2-Methylthiochroman-4-one] | 1.4 | 445 ± 7.3 | 604 ± 86.4 | – | – | – | – | –
O=C1CCSc2ccc(F)cc21 [Compound 2, 6-Fluorothiochroman-4-one] | <6.5 | > 110 | > 706 | – | – | – | – | –
CC1C/C(=N\NC(=O)c2ccc(N)cc2)c2ccccc2S1 (stereo not shown) [Compound 15, (E)-4-Amino-N′-(2-methylthiochroman-4-ylidene)benzohydrazide] | 1.1 | 91.8 ± 13.5 | 102 ± 15.1 | – | – | – | – | –
NNC(N)=S [thiosemicarbazide, reference compound] | – | – | – | inactive | > 267 | > 1000 | – | –
CC1C/C(=N\NC(=O)c2ccncc2)c2cc(F)ccc2S1 (stereo not shown) [Compound 17, (E)-N′-(6-Fluoro-2-methylthiochroman-4-ylidene)isonicotinohydrazide] | 2.1 | 98.9 ± 19.3 | 203 ± 25.4 | – | – | – | – | –
NC(=O)N/N=C1\CCSc2ccccc21 [Compound 8, (E)-2-(Thiochroman-4-ylidene)hydrazinecarboxamide] | 7.0 | 91.5 ± 33.4 | 637 ± 37.9 | – | – | – | – | –
O=C1CC(c2ccccc2)Sc2ccccc21 (stereo not shown) [Compound 5, 2-Phenylthiochroman-4-one] | >0.9 | 44.1 ± 0.9 | > 41.6 | – | – | – | moderate antileishmanial activity | high cytotoxic activity
O=C1CCSc2ccccc21 [Compound 1, thiocroman-4-one] | – | – | – | – | 344 ± 75.6 | > 1000 | – | –
O=C(N/N=C1\CCSc2ccc(F)cc21)c1ccccc1 [Compound 10, (E)-N′-(6-Fluorothiochroman-4-ylidene)benzohydrazide] | >17.6 | 37.3 ± 3.3 | > 666 | – | – | – | – | –
O=C(N/N=C1\CC(c2ccccc2)Sc2ccccc21)c1ccccc1 (stereo not shown) [Compound 21, (E)-N′-(2-Phenylthiochroman-4-ylidene)benzohydrazide] | – | 28.5 ± 2.8 | 529 ± 7 | – | – | – | – | –
CC1C/C(=N\NC(=O)c2ccccc2)c2cc(F)ccc2S1 (stereo not shown) [Compound 16, (E)-N′-(6-Fluoro-2-methylthiochroman-4-ylidene)benzohydrazide] | – | 43.9 ± 4.5 | > 636 | – | – | – | – | –
O=C(N/N=C1\CCSc2ccccc21)c1ccncc1 [Compound 7, (E)-N′-(Thiochroman-4-ylidene)isonicotinohydrazide] | >12.4 | 56.8 ± 4.54 | 706 | – | – | – | – | –
C[C@@H]1[C@H](O)[C@@H](C)/C=C/C=C/C=C/C=C/C=C/C=C/C=C/[C@H](O[C@@H]2O[C@H](C)[C@@H](O)[C@H](N)[C@@H]2O)C[C@@H]2O[C@](O)(C[C@@H](O)C[C@@H](O)[C@H](O)CC[C@@H](O)C[C@@H](O)CC(=O)O[C@H]1C)C[C@H](O)[C@H]2C(=O)O [Amphotericin B, reference compound] | – | 0.32 | 39.6 ± 8.7 | – | – | – | – | –
NC(=S)N/N=C1\CC(c2ccccc2)Sc2ccccc21 (stereo not shown) [Compound 20, (E)-2-(2-Phenylthiochroman-4-ylidene)hydrazinecarbothioamide] | 9.8 | 5.1 ± 1.3 | 50.1 ± 4.1 | – | – | – | – | –
CC1C/C(=N\NC(=O)c2ccc(N)cc2)c2cc(F)ccc2S1 (stereo not shown) [Compound 18, (E)-4-Amino-N′-(6-fluoro-2-methylthiochroman-4-ylidene)benzohydrazide] | 0.2 | 161 ± 2.4 | 31 ± 7 | – | – | – | – | –
Nc1ccc(C(=O)N/N=C2\CCSc3ccc(F)cc32)cc1 [Compound 12, (E)-4-Amino-N′-(6-fluorothiochroman-4-ylidene)benzohydrazide] | >6.6 | 95.5 ± 6.9 | > 634 | – | – | – | – | –
O=C(N/N=C1\CCSc2ccccc21)c1ccccc1 [Compound 6, (E)-N′-(Thiochroman-4-ylidene)benzohydrazide] | 3.9 | 63.7 ± 9.2 | 248 ± 49.6 | – | – | – | – | –
NC(=O)N/N=C1\CC(c2ccccc2)Sc2ccccc21 (stereo not shown) [Compound 19, (E)-2-(2-Phenylthiochroman-4-ylidene)hydrazinecarboxamide] | 18.6 | 5.4 ± 1 | 100 ± 19.8 | – | – | – | – | –
